Residues, ends and D or L forms follow the SMILES beside them. *: point of attachment. Cbz = O=C(OCc1ccccc1)*
Legend:
[1] = tested on: G9a; experiment: G9a immunoblotting of nuclear extracts; type: cell-based
[2] = tested on: G9a; experiment: Ubiquitination assay (His-ubiquitin pull-down, G9a immunoblot); type: cell-based; conditions: MCF7 cells, DMOG 1 mM
Protocol: The ubiquitination assay was performed as described previously (Lee, Mol. Cell, 2012). Briefly, cells were transfected with expression constructs including His-tagged ubiquitin and treated with 5 μg/ml of MG132 for 4 hrs, lysed in buffer A (6 M guanidinium-HCl, 100 mM sodium phosphate, 10 mM Tris-HCl (pH 8.0), 5 mM imidazole, and 10 mM β-mercaptoethanol), and incubated with Ni^2+-NTA beads (QIAGEN) for 4 hrs at room temperature. The beads were then washed sequentially with buffer A, buffer B (8 M urea, 100 mM sodium phosphate buffer, 10 mM Tris-HCl (pH 8.0), and 10 mM β-mercaptoethanol), and buffer C (8 M urea, 100 mM sodium phosphate buffer, 10 mM Tris-HCl (pH 6.3), and 10 mM β-mercaptoethanol). Bound proteins were eluted with buffer D (200 mM imidazole, 150 mM Tris-HCl (pH 6.7), 30% glycerol, 0.72 M β-mercaptoethanol, and 5% SDS), and subject to immunoblot analysis.

[3] = tested on: G9a and pVHL; experiment: Co-immunoprecipitation of G9a and pVHL; type: cell-based; conditions: MCF7 cells, immunoprecipitated with anti-HA
[4] = tested on: 10 G9a-suppressed genes; experiment: Real-time qPCR of the 10 G9a-suppressed genes; type: cell-based; conditions: versus control cells
Protocol: (§1) Quantitative RT-PCR and ChIP assays were conducted as previously described.
Briefly, total RNA was isolated using Trizol (Invitrogen) and reverse transcription was performed from 2.5 μg of total RNA using the Superscript III cDNA synthesis kit (Invitrogen). The abundance of mRNA was detected by an ABI VIIA7 system with SYBR Green Master Mix (Life Technologies). Primer pairs were designed to amplify 90-150 bp mRNA specific fragments and were confirmed as unique products by melting curve analysis. The quantity of mRNA was calculated using ΔΔCt method and normalized by using primers to detect HPRT. All reactions were performed in triplicates.

[5] = tested on: H3K9me2 at promoters of G9a-repressed genes; experiment: ChIP of H3K9me2 on promoters of G9a-repressed genes; type: cell-based; conditions: MCF7 cells, 3 μM UNC0642, hypoxia
Protocol: as §1

[6] = tested on: Bre80 and MCF10A breast epithelial cells; experiment: Cell survival (MTT) in normal-like breast epithelial cells; type: cell-based; conditions: UNC0642 at 5 μM
Protocol: (§2) For proliferation studies, cells (5×10^3) were seeded in 96-place wells and allowed to attach overnight, and then incubated in fresh growth medium in the presence of either the G9a inhibitor UNC0642 (Sigma Aldrich) or the vehicle control DMSO (Sigma Aldrich). Proliferation was evaluated via real-time imaging using IncuCyte Zoom (Essen BioScience) or by performing SRB assays at the end of the treatment. For SRB assays, medium was aspirated and cells were fixed in methylated spirits before being washed with water and stained with SRB (Sigma Aldrich) solution (0.4% in 1% acetic acid). The intensity of the staining was obtained using an optical plate reader at 564 nm. Cell viability was determined using a 3-(4,5-dimethylthiazol-2-yl)-2,5-diphenyltetrazolium bromide ([…]) assay. Cells (3×10^3/well) were seeded directly into 96-well plates and allowed to adhere overnight. 96 hours after drug treatment, 20 μL of MU (5 mg/mL; Sigma-Aldrich) was added. The plates were incubated at 37° C. for 3 hrs before the supernatants were removed, and 100 μL of isopropanol was added to each well. The absorbance value (optical density) of each well was measured at 570 nm.

[7] = tested on: breast cancer cell lines; experiment: Cell survival (MTT) in breast cancer cell lines; type: cell-based; conditions: UNC0642 at 5 μM
Protocol: as §2

[8] = tested on: MCF7 and MDA231 cells; experiment: Proliferation by IncuCyte Zoom real-time imaging; type: cell-based; conditions: 48 hours
Protocol: as §2

[9] = tested on: MCF7; experiment: SRB assay, MCF7; type: cell-based; conditions: MCF7, 48 hour treatment, normoxic and hypoxic conditions
Protocol: as §2

[10] = tested on: MDA231; experiment: SRB assay, MDA231; type: cell-based; conditions: MDA231, 48 hour treatment, normoxic and hypoxic conditions
Protocol: as §2

[11] = tested on: H3K9me2; experiment: Immunoblotting of global H3K9me2; type: cell-based; conditions: MCF7 nuclear extracts, 6 hrs
[12] = tested on: breast cancer cell motility (MCF7, MDA231); experiment: Scratch wound assay; type: cell-based
[13] = tested on: AT3 syngeneic mammary tumor; experiment: AT3 syngeneic mammary tumor growth in vivo; design: species or system C57BL/6 mice; conditions: 5 mg/kg intraperitoneally every two days
Protocol: C57BL/6 mice were purchased from the ARC Animal Resources Center. Groups of 8 to 10 mice per experiment were used for experimental tumor assays to ensure adequate power to detect biologic differences. All experiments were approved by the QIMR Berghofer Medical Research Institute Animal Ethics Committee. A total of 1×10^6 AT3 tumor cells were subcutaneously injected into mice in a 100 μL volume (on day 0) and UNC0642 administered every two days between days 16 and day 36. Tumor growth was measured using a digital calliper, and tumor volumes are presented as mean±SEM.

COC(=O)CNC(=O)C(=O)OC [DMOG, dimethyloxaloylglycine]
G9a protein levels ([1]; MCF7 and MDA231 cells, DMOG 1 mM, DFA 100 μM): increase in G9a protein levels
level of G9a polyubiquitination [2]: markedly reduced
interaction between G9a and pVHL [3]: significantly inhibited

CC(C)C[C@@H](C=O)NC(=O)[C@H](CC(C)C)NC(=O)[C@H](CC(C)C)NC(=O)OCc1ccccc1 [MG132] (Cbz-Leu-Leu-Leu-aldehyde)
G9a protein level ([1]; MCF7 cells, normoxia, 9 hrs, 20 μM MG132): increase in G9a protein level

COc1cc2c(NC3CCN(C(C)C)CC3)nc(N3CCC(F)(F)CC3)nc2cc1OCCCN1CCCC1 [UNC0642]
hypoxia repression of expression of the 10 G9a-suppressed genes [4]: repression was abolished
hypoxia-mediated increase in H3K9me2 in promoters of G9a-repressed genes [5]: almost completely abrogated or significantly reduced
cell survival [6]: unaffected
survival of cancer cell lines [7]: significantly attenuated
confluency at the end of the experiment, fold less compared to vehicle control ([8]; 2-3 μM): 2 to 2.5 fold
proliferation compared to vehicle control ([8]; various concentrations): dose-dependent reduction in proliferation
cells present after treatment [9]: less than 20%
cells present after treatment [10]: less than 20%
global H3K9me2 [11]: significant reduction
wound closure ([12]; hypoxic condition, 72 hours): not able to close the wound even after 72 hours
cellular migration (denuded area versus vehicle control) ([12]; normoxic condition): inhibit cellular migration
mean tumor volume at end-point versus vehicle treated group [13]: significantly lower
tumor growth ([13]; days 16 to 36): significantly reduced tumor growth
